US20110071173A1, “IMIDAZOQUINAZOLINE DERIVATIVES AS ANAGRELIDE ANALOGUES FOR THE TREATMENT OF MYELOPROLIFIC DISEASES AND THROMBOTIC DISEASES” (Shire LLC, priority 2008, published 2011)

Tests used:
[1] = tested on: human phosphodiesterase III (PDE III); assay: PDE III inhibition; assay type: biochemical; settings: versus anagrelide
[2] = pharmacokinetics in vivo (half-life, exposure, first pass); set-up: species or system human; settings: after anagrelide treatment
[3] = tested on: TPO-induced megakaryocytopoiesis; settings: cited from earlier work
[4] = cited from earlier work
[5] = target: human phosphodiesterase III (PDE III); settings: cited from earlier work
[6] = tested on: erythroid or myelomonocytic differentiation; settings: stimulated by erythropoietin or granulocyte-macrophage colony-stimulating factor; cited from earlier work

Compound | potency as PDE III inhibitor relative to anagrelide [1] | exposure in vivo relative to parent drug [2] | potency in inhibition of megakaryocytopoiesis relative to parent drug ([3]; versus anagrelide) | half-life ([4]; typical) [h] | IC50 ([3]; in vitro, human megakaryocytopoiesis, read-out: estimated IC50, inhibition of TPO-induced megakaryocytopoiesis) [µM] | IC50 [5] [µM] | effect on erythroid or myelomonocytic differentiation [6] | first pass effect ([4]; in vivo) [%]
O=C1NC2=Nc3ccc(Cl)c(Cl)c3CN2C1O (stereo not drawn) [3-hydroxyanagrelide] | over 40 fold | 2-3 fold | no more potent than the parent drug | 2.5 |  |  |  | 
O=C1CN2Cc3c(ccc(Cl)c3Cl)N=C2N1 [Anagrelide, 6,7-dichloro-1,5-dihydroimidazo[2,1-b]-quinazolin-2(3H)-one] |  |  |  |  | ~0.026 | ~0.029 | does not affect | > 50
Cc1[nH]c(=O)c(C#N)cc1-c1ccncc1 [milrinone] |  |  |  |  |  | 0.17 to 0.35 |  | 
